Reference: patent publication US8198456B2, “Dihydropyridine derivatives as useful as protein kinase inhibitors” (Bayer Intellectual Property GmbH, priority 2006, dated 2012)

Biological target: T1, recombinant human c-MET kinase enzyme domain (Homo sapiens, UniProt P08581)
T1 construct: Recombinant c-Met kinase domain (amino acids 960-1390); His (N); made in house; host or cells: baculovirus expression system (insect cells; SF21 is named only for the alternative format)
Experiment: c-MET receptor tyrosine kinase Homogeneous Time Resolved Fluorescence assay (HTRF)
Assay type: biochemical
Conditions: Biological Example 1 and/or Biological Example 2
Description: Recombinant c-Met kinase domain (amino acids 960-1390) was produced in a baculovirus expression vector as an N-terminal His-tagged fusion protein and purified on a NiNTA column. The resulting purified enzyme was then used in the following c-Met Homogeneous Time Resolved Fluorescence assay (HTRF) to find compounds of the invention and to perform initial activity determinations. Specifically, this assay measures the ability of compounds of the invention to inhibit the phosphorylation of a randomly synthesized, biotinylated heterocopolymeric polypeptide composed of glutamic acid and tyrosine, with an average length of 100 aa. The assay analyzes the amount of phosphorylated polypeptide produced.
The enzymatic phosphorylation of the biotinylated heterocopolymeric polypeptide was performed in a black 384-well plate at ambient temperature in a reaction mixture containing 50 mM HEPES (pH 7.4), 5 mM MgCl2, 5 mM MnCl2, 0.01% Tween-20, and 2 mM DTT, […] recombinant human c-MET kinase enzyme domain, 37 nM biotinylated heterocopolymeric polypeptide composed of glutamic acid and tyrosine, 20 μM ATP, 1% DMSO in the absence or presence of a compound of the invention. The reaction was stopped after a 20-minute incubation by the addition of 80 mM EDTA.
The formation of phosphorylated heterocopolymeric, biotinylated polypeptide was quantified with the HTRF assay technology using an anti-phosphotyrosine antibody, PT66, conjugated to europium cryptate, mixed with a streptavidin-XL665 conjugate. Reduced or inhibited phosphorylation of the heterocopolymeric, biotinylated polypeptide prevents the anti-phosphotyrosine antibody from binding to the peptide, resulting in a loss of energy transfer to the streptavidin-XL665 conjugate.
Following the 384-well enzymatic phosphorylation reaction outlined above, the detection of phosphorylated heterocopolymeric, biotinylated polypeptide was performed by dilution of the stopped reaction mixture 2-fold with 50 mM HEPES (pH 7.0), 500 mM KF, 0.1% BSA, streptavidin-XL665 (20 nM), and anti-phosphotyrosine antibody PT66-crypate conjugate (6.4 ng/well) and incubation for four hours at ambient temperature. Plates were read in an Envision plate reader (PerkinElmer Life and Analytical Sciences, Inc., MA) simultaneously at 620 nm and 665 nm to obtain signal ratios of 665 nm/620 nm. Results of energy transfer were expressed as signal ratios of 665 nm/620 nm. Negative controls were samples without recombinant c-MET or c-MET treated with 100 mM EDTA.
For determination of IC50 values of particular compounds of the invention, eight serially diluted compound concentrations (at 1:3.16 dilution) were used in the assay. Controls without a compound of the invention or with a reference compound were run in parallel in the same assay plate.

T1 sequence (P08581 960-1390): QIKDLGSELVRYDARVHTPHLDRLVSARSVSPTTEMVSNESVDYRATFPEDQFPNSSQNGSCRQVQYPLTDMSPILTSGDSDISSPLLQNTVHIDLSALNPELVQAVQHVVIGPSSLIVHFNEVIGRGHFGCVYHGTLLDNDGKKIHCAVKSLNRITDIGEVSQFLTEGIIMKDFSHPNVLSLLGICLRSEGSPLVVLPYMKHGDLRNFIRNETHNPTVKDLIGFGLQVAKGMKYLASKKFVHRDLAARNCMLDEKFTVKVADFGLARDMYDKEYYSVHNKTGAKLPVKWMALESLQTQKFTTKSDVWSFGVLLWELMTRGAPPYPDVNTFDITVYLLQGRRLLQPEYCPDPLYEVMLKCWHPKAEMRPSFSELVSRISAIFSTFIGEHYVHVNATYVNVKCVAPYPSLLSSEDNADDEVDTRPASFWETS

SMILES	IC50 [µM]
CC1=C(C#N)C(c2cccc(NC(=O)c3ncc[nH]3)c2)C(C#N)=C(C)N1 [compound 65, N-[3-(3,5-dicyano-1,4-dihydro-2,6-dimethyl-4-pyridinyl)phenyl]-1H-imidazole-2-carboxamide]	0.1 to 0.5
CC1=C(C#N)C(c2cccc(NC(=O)c3cnc[nH]3)c2)C(C#N)=C(C)N1 [compound 66, N-[3-(3,5-dicyano-1,4-dihydro-2,6-dimethyl-4-pyridinyl)phenyl]-1H-imidazole-5-carboxamide]	0.1 to 0.5
CC1=C(C#N)C(c2cccc(C(=O)Nc3cccc(N)n3)c2)C(C#N)=C(C)N1 [compound 68, N-(6-amino-2-pyridinyl)-3-(3,5-dicyano-1,4-dihydro-2,6-dimethyl-4-pyridinyl)-benzamide]	0.1 to 0.5
CC1=C(C#N)C(c2cccc(C(=O)Nc3ccc(CO)cn3)c2)C(C#N)=C(C)N1 [compound 72, 3-(3,5-dicyano-1,4-dihydro-2,6-dimethyl-4-pyridinyl)-N-[5-(hydroxymethyl)-2-pyridinyl]-benzamide]	0.1 to 0.5
CC1=C(C#N)C(c2cccc(C(=O)Nc3ccc(CN(C)C)cn3)c2)C(C#N)=C(C)N1 [compound 76, 3-(3,5-dicyano-1,4-dihydro-2,6-dimethyl-4-pyridinyl)-N-[5-[(dimethylamino)methyl]-2-pyridinyl]-benzamide]	0.1 to 0.5
CC1=C(C#N)C(c2ccc3[nH]ncc3c2)C(C#N)=C(C)N1 [compound 80, 1,4-dihydro-4-(1H-indazol-5-yl)-2,6-dimethyl-3,5-pyridinedicarbonitrile]	< 0.1
CC1=C(C#N)C(c2ccc3[nH]nc(C)c3c2)C(C#N)=C(C)N1 [compound 81, 1,4-dihydro-2,6-dimethyl-4-(3-methyl-1H-indazol-5-yl)-3,5-pyridinedicarbonitrile]	< 0.1
CC1=C(C#N)C(c2ccc3[nH]nc(N)c3c2)C(C#N)=C(C)N1 [compound 82, 4-(3-amino-1H-indazol-5-yl)-1,4-dihydro-2,6-dimethyl-3,5-pyridinedicarbonitrile]	< 0.1
CC1=C(C#N)C(c2ccc3[nH]nc(CN4CCOCC4)c3c2)C(C#N)=C(C)N1 [compound 83, 1,4-dihydro-2,6-dimethyl-4-[3-(4-morpholinylmethyl)-1H-indazol-5-yl]-3,5-pyridinedicarbonitrile]	0.5 to 2.5
COc1cccc(-c2n[nH]c3ccc(C4C(C#N)=C(C)NC(C)=C4C#N)cc23)c1 [compound 84, 1,4-dihydro-4-[3-(3-methoxyphenyl)-1H-indazol-5-yl]-2,6-dimethyl-3,5-pyridinedicarbonitrile]	0.1 to 0.5
COC(=O)c1n[nH]c2ccc(C3C(C#N)=C(C)NC(C)=C3C#N)cc12 [compound 85, 5-(3,5-dicyano-1,4-dihydro-2,6-dimethyl-4-pyridinyl)-1H-indazole-3-carboxylic acid methyl ester]	0.5 to 2.5
CC1=C(C#N)C(c2ccc3[nH]nc(C(=O)O)c3c2)C(C#N)=C(C)N1 [compound 86, 5-(3,5-dicyano-1,4-dihydro-2,6-dimethyl-4-pyridinyl)-1H-indazole-3-carboxylic acid]	< 0.1
CC1=C(C#N)C(c2ccc3[nH]nc(-c4cccnc4)c3c2)C(C#N)=C(C)N1 [compound 87, 1,4-dihydro-2,6-dimethyl-4-[3-(3-pyridinyl)-1H-indazol-5-yl]-3,5-pyridinedicarbonitrile]	< 0.1
CC1=C(C#N)C(c2ccc3[nH]nc(-c4ccccn4)c3c2)C(C#N)=C(C)N1 [compound 88, 1,4-dihydro-2,6-dimethyl-4-[3-(2-pyridinyl)-1H-indazol-5-yl]-3,5-pyridinedicarbonitrile]	< 0.1
CC(=O)Nc1n[nH]c2ccc(C3C(C#N)=C(C)NC(C)=C3C#N)cc12 [compound 89, N-[5-(3,5-dicyano-1,4-dihydro-2,6-dimethyl-4-pyridinyl)-1H-indazol-3-yl]-acetamide]	< 0.1
CC1=C(C#N)C(c2ccc3[nH]nc(CNc4cccnc4)c3c2)C(C#N)=C(C)N1 [compound 91, 1,4-dihydro-2,6-dimethyl-4-[3-[(3-pyridinylamino)methyl]-1H-indazol-5-yl]-3,5-pyridinedicarbonitrile]	< 0.1
CC1=C(C#N)C(c2ccc3c(c2)c(N)nn3C(=O)OC(C)(C)C)C(C#N)=C(C)N1 [compound 92, 3-amino-5-(3,5-dicyano-1,4-dihydro-2,6-dimethyl-4-pyridinyl)-1H-indazole-1-carboxylic acid tert-butyl ester]	0.1 to 0.5
CC1=C(C#N)C(c2ccc3[nH]nc(I)c3c2)C(C#N)=C(C)N1 [compound 93, 1,4-dihydro-4-(3-iodo-1H-indazol-5-yl)-2,6-dimethyl-3,5-pyridinedicarbonitrile]	< 0.1
CC1=C(C#N)C(c2ccc3c(c2)c(N)nn3C(=O)c2ccccc2)C(C#N)=C(C)N1 [compound 95, 4-(3-amino-1-benzoyl-1H-indazol-5-yl)-1,4-dihydro-2,6-dimethyl-3,5-pyridinedicarbonitrile]	< 0.1
CC1=C(C#N)C(c2ccc3[nH]nc(NCc4ccccc4)c3c2)C(C#N)=C(C)N1 [compound 105, 1,4-dihydro-2,6-dimethyl-4-[3-[(phenylmethyl)amino]-1H-indazol-5-yl]-3,5-pyridinedicarbonitrile]	< 0.1
COC(c1cccnc1)n1nc(N)c2cc(C3C(C#N)=C(C)NC(C)=C3C#N)ccc21 (stereo not drawn) [compound 110, 4-[3-amino-1-(methoxy-3-pyridinylmethyl)-1H-indazol-5-yl]-1,4-dihydro-2,6-dimethyl-3,5-pyridinedicarbonitrile]	0.1 to 0.5
CC1=C(C#N)C(c2ccc3[nH]nc(-c4ccc(N5CCNCC5)cc4)c3c2)C(C#N)=C(C)N1 [compound 111, 1,4-dihydro-2,6-dimethyl-4-[3-[4-(1-piperazinyl)phenyl]-1H-indazol-5-yl]-3,5-pyridinedicarbonitrile]	< 0.1
CC1=C(C#N)C(c2ccc3[nH]nc(NCCO)c3c2)C(C#N)=C(C)N1 [compound 118, 1,4-dihydro-4-[3-[(2-hydroxyethyl)amino]-1H-indazol-5-yl]-2,6-dimethyl-3,5-pyridinedicarbonitrile]	< 0.1
CC1=C(C#N)C(c2ccc3c(c2)c(NCCO)nn3C(=O)OC(C)(C)C)C(C#N)=C(C)N1 [compound 119, 5-(3,5-dicyano-1,4-dihydro-2,6-dimethyl-4-pyridinyl)-3-[(2-hydroxyethyl)-amino]-1H-indazole-1-carboxylic acid, 1,1-dimethylethyl ester]	< 0.1
CC1=C(C#N)C(c2ccc3[nH]nc(NCc4cccnc4)c3c2)C(C#N)=C(C)N1 [compound 120, 1,4-dihydro-2,6-dimethyl-4-[3-[(3-pyridinylmethyl)amino]-1H-indazol-5-yl]-3,5-pyridinedicarbonitrile]	< 0.1
COC(=O)Nc1ccc(-c2n[nH]c3ccc(C4C(C#N)=C(C)NC(C)=C4C#N)cc23)cc1 [compound 123, [4-[5-(3,5-dicyano-1,4-dihydro-2,6-dimethyl-4-pyridinyl)-1H-indazol-3-yl]-phenyl]-carbamic acid methyl ester]	0.5 to 2.5
CC1=C(C#N)C(c2ccc3[nH]nc(C(=O)NCCN4CCCC4)c3c2)C(C#N)=C(C)N1 [compound 124, 5-(3,5-dicyano-1,4-dihydro-2,6-dimethyl-4-pyridinyl)-N-[2-(1-pyrrolidinyl)ethyl]-1H-indazole-3-carboxamide]	< 0.1
